Patent publication US20070037253A1, “Methods and compositions for treatment of arthritis and cancer” (priority 2003, published 2007)
Several values for one entry are separate records, joined by “and”; a condition that tells them apart may be missing. Identical values can stand only once. Where a SMILES comes first, the peptide text is derived from it.

Key:
Assay type in all cases: biochemical
[1] = biological target: T1, purified human synovial sPLA2 (human Type IIA sPLA2) (Homo sapiens, UniProt P14555); assay: sPLA2 inhibition, 3H-arachidonate-labelled E. coli membrane assay; conditions: fixed peptide concentration (5 μM); 3H-labelled E. coli membrane assay; read-out: % Inhibition (mean ± SD)
T1 construct: purchased Cayman Chemicals, USA
T1 sequence (P14555 21-144): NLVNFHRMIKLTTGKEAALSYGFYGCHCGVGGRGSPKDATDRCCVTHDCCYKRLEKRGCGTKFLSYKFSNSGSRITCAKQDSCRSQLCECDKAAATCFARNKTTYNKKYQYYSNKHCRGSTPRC
Procedure: In brief, [^3H] arachidonate-labeled E. coli membranes (0.005 mCi/mL; 5.8 μCi/μmol, NEN) were used as substrate, and 100 mM Tris-HCl—25 mM CaCl2, pH 7.5 solution as an assay buffer. The reaction mixture contained 20 μL of substrate, 0.85 pmole of purified human synovial sPLA2 (human Type IIA sPLA2, Cayman Chemicals, USA), and an increasing concentrations of the family of synthetic peptides derived from the sequence of PIP. The final volume of the reaction mixture was adjusted to 250 μL with an assay buffer. After incubation of the mixture (37° C., 1 h) and termination of the reaction with 750 μL of chilled PBS containing 1% BSA, microfuge tubes containing the samples were centrifuged (10,000 g at 4° C. for 15 min), and 500 μL aliquots of the supernatant taken to measure the amount of [^3H]-labeled arachidonate released from the E. coli membrane using liquid scintillation counting (Multipurpose Scintillation Counter LS 6500; Beckman, USA). As controls, sPLA2 was pre-incubated with the assay buffer alone. All samples, including controls, were performed in triplicate and plotted as the percentage inhibition relative to negative controls.
A sigmoid dose response curve was generated to allow calculation of the IC50 values. All samples were performed in triplicate. Results were analyzed by nonlinear regression with GraphPad Prism (version 2.01) and expressed as the percentage of inhibition relative to control values.

[2] = tested on: collagenase I (MMP-1); assay: Collagenase activity assay, collagen thin film (collagen type II substrate); conditions: for Collagenase (% Inhibition): collagen thin film, collagen type II, peptide concentration not given
Procedure: Collagenase activity was assayed by collagen thin film method using collagen type II as substrate. IC50 values were graphically determined from the inhibition curves, constructed on the basis of the in vitro results of collagenase assays. Results are the mean±SD of 3 separate experiments done in triplicates. (•), P-NT.II; (□), PIP [59-67] dimer; (Δ), PIP [59-67} monomer; (∇), LY 315920.
Collagenase activity assay: Using collagen thin film as the substrate, a quantitative method was established to measure the enzymatic activity of the MMPs (principally collagenase). Collagen type II (Sigma) solution (4 μL, 3 mg/mL in 0.012 N HCl) was added to each well of 96-well plates and precipitated by slowly increasing the pH with 4 μL of H2O and 8 μL of 0.012 N NaOH. The plate was dried at 23° C. for 24 hr, washed with H2O, and dried again at 23° C., resulting in a thin film containing 12 μg of collagen that was tightly bound to the bottom of the wells. Enzymatic reactions of the collagenase I (with and without peptide inhibitors) against the collagen films were carried out in quadruplicate at 24° C. for 16 h. The digested portion of the film was washed away, while the undigested portion was fixed for 3 h with 0.1% Coomassie brilliant blue R in 10% acetic acid and 45% methanol, and the wells washed and dried.

[3] = biological target: T2, MMP-2 (Homo sapiens, UniProt P08253); assay: Gelatin zymography of human synovial fluid pre-incubated with inhibitors; conditions: 5 or 10 μM, pre-incubated 37° C. 1 h
T2 construct: from tissue; host or cells: human synovial fluid
T2 sequence (P08253 110-660): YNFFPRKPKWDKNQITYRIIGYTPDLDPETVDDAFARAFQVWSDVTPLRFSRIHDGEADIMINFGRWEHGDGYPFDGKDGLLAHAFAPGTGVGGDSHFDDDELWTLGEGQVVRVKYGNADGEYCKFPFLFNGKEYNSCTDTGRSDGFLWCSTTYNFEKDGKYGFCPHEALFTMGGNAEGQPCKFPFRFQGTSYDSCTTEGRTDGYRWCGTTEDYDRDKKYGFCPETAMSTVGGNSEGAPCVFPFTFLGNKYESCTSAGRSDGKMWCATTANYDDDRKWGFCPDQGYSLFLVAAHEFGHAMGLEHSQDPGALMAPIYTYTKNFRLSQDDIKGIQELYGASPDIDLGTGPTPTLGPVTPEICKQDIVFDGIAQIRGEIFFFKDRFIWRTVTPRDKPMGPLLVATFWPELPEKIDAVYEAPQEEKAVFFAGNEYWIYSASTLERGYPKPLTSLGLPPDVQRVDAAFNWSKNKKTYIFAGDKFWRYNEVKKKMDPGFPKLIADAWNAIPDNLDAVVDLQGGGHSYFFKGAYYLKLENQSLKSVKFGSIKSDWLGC
Procedure: (A) Samples containing human synovial fluid (5 μL) and 5 or 10 μM of peptides were pre-incubated at 37° C. for 1 h in Tris-HCl buffer prior to electrophoresis on 10% SDS-PAGE gel containing gelatin (0.1%). […] (B) The mean density (OD/mm2)±SD (n=3), representing MMP-2 activity, obtained by scanning the zymograms using the GS-710 calibrated imaging densitometer (Bio Rad, USA).
Gelatin zymography: human synovial fluid, purified human recombinant MMP-2 and -9 or APMA-activated concentrated culture supernatant samples (10 μL) was mixed (1:1) with Laemmli sample buffer, loaded on 4% acrylamide stacking gel and electrophoresed (120 V) at 4° C. on a 10% acrylamide-resolving minigel containing 0.1% gelatin. After electrophoresis for 1 h, the gels were soaked in 2.5% Triton X-100 on a shaker for 1 h, changing the solution after 30 min, to eliminate SDS. After overnight incubation in zymogen activation buffer [50 mM Tris-HCl, pH 7.5, containing 10 mM CaCl2 and 5 mM ZnCl2] at 37° C., the gels were rinsed in distilled water, and stained for 3 hr with […], after which clear bands of digested gelatin were clearly visible. The gels were briefly rinsed in distilled water and scanned by the Bio-Rad GS-710 Calibrated Imaging Densitometer.

SMILES	inhibition at 5 µM [1] [%]	Collagenase (% Inhibition) [2]	MMP-2 gelatinase activity (zymogram densitometry) vs control [3]	IC50 ([2]; collagen thin film method, FIG. 2, read-out: IC50 (mean±SD), collagenase I (MMP-1)) [µM]
CC[C@H](C)[C@H](NC(=O)[C@H](CC(=O)O)NC(=O)[C@@H](N)C(C)C)C(=O)N[C@@H](Cc1c[nH]cn1)C(=O)N[C@H](C(=O)N[C@@H](Cc1c[nH]c2ccccc12)C(=O)N[C@@H](CC(=O)O)C(=O)NCC(=O)N[C@H](C(=O)O)C(C)C)C(C)C [PIP [59-67] monomer] (H-VDIHVWDGV-OH; N-terminus and C-terminus assumed)	56.4 ± 3.21	34.2 ± 4.7%	did not show any significant difference from the control	
CC[C@H](C)[C@H](NC(=O)[C@H](Cc1ccc(O)cc1)NC(=O)[C@@H](NC(=O)CNC(=O)[C@H](CC(=O)O)NC(=O)[C@H](Cc1c[nH]c2ccccc12)NC(=O)[C@@H](NC(=O)[C@H](Cc1c[nH]cn1)NC(=O)[C@@H](NC(=O)[C@H](CC(=O)O)NC(=O)[C@@H](NC(=O)[C@H](CCCNC(=N)N)NC(=O)CNC(=O)[C@@H](N)CC(C)C)C(C)C)[C@@H](C)CC)C(C)C)C(C)C)C(=O)N[C@@H](CCCNC(=N)N)C(=O)NCC(=O)N[C@@H](CCCNC(=N)N)C(=O)O [P-NT.II] (H-LGRVDIHVWDGVYIRGR-OH; N-terminus and C-terminus assumed)		64.2 ± 5.6% and 64.2 ± 5.5%	did not show any significant difference from the control	8.43 ± 1.17
